ChEMBL document CHEMBL2073906, “Interactions of ofloxacin and erythromycin with the multidrug resistance protein (MRP) in MRP-overexpressing human leukemia cells” (Antimicrob Agents Chemother, 2000)

Legend:
[1] = target: T1, Multidrug resistance-associated protein 1 (Homo sapiens, UniProt P33527); assay: TP_TRANSPORTER: increase in Vincristine intracellular accumulation (Vincristine: 0.03 uM, Erythromycin: 14.7 mg/mL) in HL60R cells: flow cytometric analysis; assay type: functional, cell-based
[2] = target: T1, Multidrug resistance-associated protein 1; assay: TP_TRANSPORTER: increase in Vincristine intracellular accumulation (Vincristine: 0.03 uM, Ofloxacin: 21.7 mg/mL) in HL60R cells: flow cytometric analysis; assay type: functional, cell-based

T1 sequence (P33527 whole entry): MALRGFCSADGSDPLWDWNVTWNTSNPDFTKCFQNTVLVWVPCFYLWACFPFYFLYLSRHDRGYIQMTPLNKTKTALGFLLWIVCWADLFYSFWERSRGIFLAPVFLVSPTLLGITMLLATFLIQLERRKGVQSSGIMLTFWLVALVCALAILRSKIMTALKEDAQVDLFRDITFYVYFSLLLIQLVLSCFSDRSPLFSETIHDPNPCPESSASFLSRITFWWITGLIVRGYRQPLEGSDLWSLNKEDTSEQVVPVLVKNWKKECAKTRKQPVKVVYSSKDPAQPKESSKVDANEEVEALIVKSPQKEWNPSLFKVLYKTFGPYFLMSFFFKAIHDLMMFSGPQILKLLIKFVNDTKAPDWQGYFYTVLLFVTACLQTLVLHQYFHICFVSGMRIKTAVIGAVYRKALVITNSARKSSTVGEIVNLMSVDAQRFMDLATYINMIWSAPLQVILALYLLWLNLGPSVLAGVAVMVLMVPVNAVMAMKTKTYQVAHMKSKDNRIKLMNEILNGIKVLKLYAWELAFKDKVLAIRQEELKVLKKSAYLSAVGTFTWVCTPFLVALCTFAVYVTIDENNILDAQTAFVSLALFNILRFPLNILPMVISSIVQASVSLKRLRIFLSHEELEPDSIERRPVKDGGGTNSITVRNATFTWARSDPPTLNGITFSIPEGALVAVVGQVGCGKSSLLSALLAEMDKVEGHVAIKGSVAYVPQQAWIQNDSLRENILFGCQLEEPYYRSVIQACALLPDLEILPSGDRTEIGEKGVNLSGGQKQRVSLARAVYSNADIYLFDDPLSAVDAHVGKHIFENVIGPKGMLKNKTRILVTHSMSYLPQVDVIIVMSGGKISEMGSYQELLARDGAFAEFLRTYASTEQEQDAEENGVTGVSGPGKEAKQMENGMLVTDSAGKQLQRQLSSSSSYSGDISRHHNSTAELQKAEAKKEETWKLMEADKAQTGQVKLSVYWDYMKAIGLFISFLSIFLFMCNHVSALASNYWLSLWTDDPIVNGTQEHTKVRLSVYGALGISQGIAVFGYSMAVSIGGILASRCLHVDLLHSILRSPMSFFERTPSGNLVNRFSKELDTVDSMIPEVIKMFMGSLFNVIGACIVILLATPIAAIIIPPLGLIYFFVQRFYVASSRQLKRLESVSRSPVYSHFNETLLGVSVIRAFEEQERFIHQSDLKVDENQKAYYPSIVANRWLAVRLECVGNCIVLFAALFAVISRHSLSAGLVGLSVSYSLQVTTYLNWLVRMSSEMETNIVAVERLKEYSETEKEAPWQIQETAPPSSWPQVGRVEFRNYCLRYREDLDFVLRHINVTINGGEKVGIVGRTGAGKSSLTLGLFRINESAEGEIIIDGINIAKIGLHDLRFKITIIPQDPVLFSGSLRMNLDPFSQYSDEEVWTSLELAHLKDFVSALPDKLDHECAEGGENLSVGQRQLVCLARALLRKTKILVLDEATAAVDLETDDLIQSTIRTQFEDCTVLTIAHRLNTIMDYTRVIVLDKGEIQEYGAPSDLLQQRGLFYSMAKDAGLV

SMILES	Activity [1]	Activity [2]
CC[C@H]1OC(=O)[C@H](C)[C@@H](O[C@H]2C[C@@](C)(OC)[C@@H](O)[C@H](C)O2)[C@H](C)[C@@H](O[C@@H]2O[C@H](C)C[C@H](N(C)C)[C@H]2O)[C@](C)(O)C[C@@H](C)C(=O)[C@H](C)[C@@H](O)[C@]1(C)O [ERYTHROMYCIN]	0.16	
CC1COc2c(N3CCN(C)CC3)c(F)cc3c(=O)c(C(=O)O)cn1c23 (configuration not stated) [OFLOXACIN]		0.29
